Results: patent US6291527A (priority 1998, dated 2001)
Counter-ions that a name gives are not always drawn.

What was measured:
[1] = animal studies of the three salts vs Ketoprofen acid and Ketoprofen sodium salt: distribution and kinetics; format: in vivo, experimental animals; details: for active substance concentration in the inflamed site: injection, vs Ketoprofen sodium salt; for kinetic parameters after oral administration: vs Ketoprofen acid and Ketoprofen sodium salt
From the text: The three above mentioned Ketoprofen salts were compared with Ketoprofen acid and Ketoprofen sodium salt in animal studies.

carrageen edema = carrageen edema test in the rat (hind paw volume, plethysmometer); details: rat, oral; for evolution of paw volume (delta in ml) at 1st hour / evolution of paw volume (delta in ml) at 2nd hour / evolution of paw volume (delta in ml) at 3rd hour / evolution of paw volume (delta in ml) at 4th hour / evolution of paw volume (delta in ml) at 5th hour / evolution of paw volume (delta in ml) at 6th hour: mean ± MSE; for % inhibition vs controls (paw edema AUC): p < 0.001; for AUC (mean ± MSE) of increase in paw volume: paw volume (delta in ml) vs time (0 to 6 hours), controls 4.23 ± 0.26; for oral ED50 (carrageen edema, extrapolated from AUC): 95% conf. lim. KGS 0.733-1.474, KLS 1.198-1.567
[2] = system: inflammatory exudate (IE); assay: foreign body (sponge) method in the rat: inflammatory exudate volume; format: in vivo; details: for IE (inflammatory exudate) volume / % inhibition versus controls of IE: 8 hours; for IE (inflammatory exudate) volume: mean ± MSE, controls 5.15 ± 0.28
Method: (§1) These tests involved the use of 100 male CD strain rats (Charles River, Calco, LC, Italy) weighing 180±8 g. The animals were fasted for 12 hours (water ad libitum) before being used for the experiment.
(§2) The inflammatory reaction with the formation of exudate was induced by using sterilized polyester sponges (4×1.5×0.5 cm) soaked in carrageen dissolved at a 2% concentration in sterile physiological solution. The rats were anesthetized lightly with ether and two sponges per rat were implanted subcutaneously in a previously shaven dorsal area.
(§3) The sponges were removed 8 hours later after having sacrificed the animals by ether euthanasia, and immediately placed in large polyethylene 50 ml test tubes containing 10 ml of heparinized physiological solution. The test tubes were then subjected to centrifugation (1000 rotations; 15 minutes), followed by removal of the sponges and accurate measurement of the volume of the remaining fluid. Always using the Higgs et al. method, the acid lipids present in the fluid were extracted in chloroform with prior dilution in ethanol and acidification to pH 3. After complete evaporation of the chloroform, the remaining dry residue was dissolved in physiological solution and used for the immunoenzymatic assay of prostaglandin E2 (PGE2).
(§4) All the other reagents used for the tests were purchased from Merck-Bracco (Milan, Italy).

prostaglandin E2 (PGE2) = assay: foreign body (sponge) method in the rat: PGE2 in the inflammatory exudate (immunoenzymatic assay); format: in vivo; details: rat, oral, listed as KLS; for PGE2 concentration in the inflammatory exudate / % inhibition versus controls of PGE2: 8 hours; for PGE2 concentration in the inflammatory exudate: mean, controls 98.7 ± 4.7
Method: as §1, §2, §3, §4

[3] = rat, oral, 0.5 mg/kg, listed as KLS
[4] = rat, oral, 1 mg/kg, listed as KLS
[5] = rat, oral, 2 mg/kg, listed as KLS
[6] = rat, oral, 4 mg/kg, listed as KLS

## CC(C(=O)O)c1cccc(C(=O)c2ccccc2)c1 (stereo not shown) [Ketoprofen Hydroxyproline salt]
[1]
  active substance concentration in the inflamed site: intermediate concentrations between the sodium salt and the Glucosamine salt
  kinetic parameters after oral administration: significantly different

## CC(C(=O)O)c1cccc(C(=O)c2ccccc2)c1 (stereo not shown) [Ketoprofen Lysine salt]
Carrageen edema; 0.5 mg/kg, controls 0.40 ± 0.02, listed as KLS
  evolution of paw volume (delta in ml) at 1st hour: 0.32 ± 0.02 mL
Carrageen edema; 0.5 mg/kg, controls 0.71 ± 0.02, listed as KLS
  evolution of paw volume (delta in ml) at 2nd hour: 0.53 ± 0.03 mL
Carrageen edema; 0.5 mg/kg, controls 0.87 ± 0.03, listed as KLS
  evolution of paw volume (delta in ml) at 3rd hour: 0.66 ± 0.04 mL
Carrageen edema; 0.5 mg/kg, controls 0.93 ± 0.03, listed as KLS
  evolution of paw volume (delta in ml) at 4th hour: 0.70 ± 0.03 mL
Carrageen edema; 0.5 mg/kg, controls 0.90 ± 0.04, listed as KLS
  evolution of paw volume (delta in ml) at 5th hour: 0.68 ± 0.02 mL
Carrageen edema; 0.5 mg/kg, controls 0.84 ± 0.04, listed as KLS
  evolution of paw volume (delta in ml) at 6th hour: 0.64 ± 0.03 mL
Carrageen edema; 0.5 mg/kg, listed as KLS
  % inhibition vs controls (paw edema AUC): 24.1%
Carrageen edema; 0.5 mg/kg, listed as KLS, 0.5 mg/kg
  AUC (mean ± MSE) of increase in paw volume: 3.21 ± 0.17
Carrageen edema; 1 mg/kg, listed as KLS
  evolution of paw volume (delta in ml) at 1st hour: 0.24 ± 0.02 mL
  evolution of paw volume (delta in ml) at 2nd hour: 0.43 ± 0.03 mL
  evolution of paw volume (delta in ml) at 3rd hour: 0.54 ± 0.03 mL
  evolution of paw volume (delta in ml) at 4th hour: 0.59 ± 0.03 mL
  evolution of paw volume (delta in ml) at 5th hour: 0.57 ± 0.03 mL
  evolution of paw volume (delta in ml) at 6th hour: 0.49 ± 0.03 mL
  % inhibition vs controls (paw edema AUC): 38.0%
Carrageen edema; 1 mg/kg, listed as KLS, 1 mg/kg
  AUC (mean ± MSE) of increase in paw volume: 2.62 ± 0.12
Carrageen edema; 2 mg/kg, listed as KLS
  evolution of paw volume (delta in ml) at 1st hour: 0.13 ± 0.02 mL
  evolution of paw volume (delta in ml) at 2nd hour: 0.23 ± 0.02 mL
  evolution of paw volume (delta in ml) at 3rd hour: 0.28 ± 0.02 mL
  evolution of paw volume (delta in ml) at 4th hour: 0.29 ± 0.02 mL
  evolution of paw volume (delta in ml) at 5th hour: 0.28 ± 0.02 mL
  evolution of paw volume (delta in ml) at 6th hour: 0.23 ± 0.03 mL
  % inhibition vs controls (paw edema AUC): 68.6%
Carrageen edema; 2 mg/kg, listed as KLS, 2 mg/kg
  AUC (mean ± MSE) of increase in paw volume: 1.33 ± 0.07
Carrageen edema
  oral ED50 (carrageen edema, extrapolated from AUC): 1.383 mg/kg
Carrageen edema; listed as KLS
  oral ED50 (carrageen edema, extrapolated from AUC): 1.383 mg/kg
[2]; rat, 0.5, 1, 2 and 4 mg/kg per os
  control of the inflammatory response to sponge implantation: able to control the inflammatory response
[2]; [3]
  IE (inflammatory exudate) volume: 4.33 ± 0.26 mL
  % inhibition versus controls of IE: 15.9%
[2]; [4]
  IE (inflammatory exudate) volume: 3.82 ± 0.15 mL
  % inhibition versus controls of IE: 25.8%
[2]; [5]
  IE (inflammatory exudate) volume: 2.97 ± 0.19 mL
  % inhibition versus controls of IE: 42.3%
[2]; [6]
  IE (inflammatory exudate) volume: 1.68 ± 0.14 mL
  % inhibition versus controls of IE: 67.4%
[2]; rat, oral, 95% confidence limits KGS 1.802-2.381, KLS 2.334-3.094, 480 min, listed as KLS
  IE oral ED50: 2.714 mg/kg
Prostaglandin E2 (PGE2); 0.5 mg/kg
  PGE2 concentration in the inflammatory exudate: 78.1 ng/mL
  % inhibition versus controls of PGE2: 20.9%
Prostaglandin E2 (PGE2); 1 mg/kg
  PGE2 concentration in the inflammatory exudate: 67.9 ng/mL
  % inhibition versus controls of PGE2: 31.2%
Prostaglandin E2 (PGE2); 2 mg/kg
  PGE2 concentration in the inflammatory exudate: 55.6 ng/mL
  % inhibition versus controls of PGE2: 43.7%
Prostaglandin E2 (PGE2); 4 mg/kg
  PGE2 concentration in the inflammatory exudate: 32.8 ng/mL
  % inhibition versus controls of PGE2: 66.8%
Prostaglandin E2 (PGE2); 95% confidence limits KGS 1.848-2.131, KLS 2.215-3.005, 480 min
  PGE2 oral ED50: 2.610 mg/kg

## CC(C(=O)O)c1cccc(C(=O)c2ccccc2)c1 (stereo not shown) [Ketoprofen Proline salt]
[1]
  active substance concentration in the inflamed site: intermediate concentrations between the sodium salt and the Glucosamine salt
  kinetic parameters after oral administration: significantly different
